Source: patent US20240300917A1, “MICROBIOCIDAL QUINOLINE/QUINOXALINE ISOQUINOLINE DERIVATIVES” (SYNGENTA CROP PROTECTION AG, priority 2021, published 2024)

Question: Which melting point does the source give for Cc1ccc2c(c1C#N)[C@H](C)[C@H](C)N=C2c1cnc2c(F)cccc2c1 (racemic) here?
Answer: Its melting point is 164 to 166 °C.

Question: For Cc1ccc2c(c1C#N)[C@H](C)[C@H](C)N=C2c1cnc2c(F)c(F)ccc2c1 (racemic) [E.06, rac-(3S,4S)-1-(7,8-difluoro-3-quinolyl)-3,4,6-trimethyl-3,4-dihydroisoquinoline-5-carbonitrile], which melting point is on record?
Answer: The melting point was 140 to 142 °C.

Question: With Cc1ccc2c(c1Cl)[C@@H](C)[C@H](C)N=C2c1cnc2c(F)cccc2c1 (racemic) [E.09, rac-(3S,4R)-5-chloro-1-(8-fluoro-3-quinolyl)-3,4,6-trimethyl-3,4-dihydroisoquinoline] as the molecule, how does the melting point read?
Answer: Its melting point is 82 to 84 °C.

Question: With C[C@@H]1N=C(c2cnc3c(F)cccc3c2)c2cccc(Br)c2[C@H]1C (racemic) [E.12, rac-(3S,4R)-5-bromo-1-(8-fluoro-3-quinolyl)-3,4-dimethyl-3,4-dihydroisoquinoline] as the molecule, how does the melting point read?
Answer: Its melting point is 132 to 134 °C.

Question: With C[C@@H]1N=C(c2cnc3c(F)cccc3c2)c2cccc(Cl)c2[C@H]1C (racemic) [E.13, rac-(3S,4R)-5-chloro-1-(8-fluoro-3-quinolyl)-3,4-dimethyl-3,4-dihydroisoquinoline] as the molecule, how does the melting point read?
Answer: The melting point was 112 to 114 °C.

Question: Which melting point does the source give for Cc1ccc2c(c1Cl)[C@H](C)[C@H](C)N=C2c1cnc2c(F)cccc2c1 (racemic) [E.14, rac-(3S,4S)-5-chloro-1-(8-fluoro-3-quinolyl)-3,4,6-trimethyl-3,4-dihydroisoquinoline] here?
Answer: Its melting point is 84 to 86 °C.

Question: With C[C@@H]1N=C(c2cnc3c(F)cccc3c2)c2cccc(Cl)c2[C@@H]1C (racemic) [E.15, rac-(3S,4S)-5-chloro-1-(8-fluoro-3-quinolyl)-3,4-dimethyl-3,4-dihydroisoquinoline] as the molecule, how does the melting point read?
Answer: Its melting point is 100 to 102 °C.
